Data taken from ChEMBL document CHEMBL3988442, “University of Dundee, Small-Polar-MMV Screening Library” (2021).

What was measured:
[1] = microbe, parasite or virus in culture; conditions: Mycobacterium tuberculosis, 96 h, read-out: pIC50 (converted)
[2] = microbe, parasite or virus in culture; conditions: Mycobacterium tuberculosis, 72 h, read-out: pIC50 (converted)

| Compound | IC50 [1] | IC50 [2] |
| --- | --- | --- |
| O=C(NCC1(O)COCCN(Cc2cccc(O)c2)C1)c1cscn1 (stereo not given) | > 50.1 µM | > 50.1 µM |
| CC(C)(C)Cc1nnc(NCc2ccsc2)o1 | 12.5 µM | > 50.1 µM |
| CC(C)(C)c1nc(CN2CCC(c3ccnn3CCO)CC2)no1 | > 50.1 µM | > 50.1 µM |
| CNCC(=O)Nc1cc(Cl)c(OCCOC)c(Cl)c1 | > 501 µM | > 501 µM |
| CCCc1ccc(CN2C[C@H](OCC)[C@@H](O)C2)o1 | 241 µM | 298 µM |
| Oc1cccc(CNc2cccnc2-n2cccn2)c1 | 74.1 µM | 222 µM |
| Cc1ccc(S(=O)(=O)CCC(=O)NC(N)=O)cc1 | > 501 µM | 155 µM |
| O=C(c1cc(C2CC2)on1)N1CCC2(CCOCC2)C1 | 25.4 µM | 20.5 µM |
| Cc1cc(NCCCC(F)(F)F)n2nc(C)cc2n1 | 10.2 µM | 15.6 µM |
| CC(C)[C@@H]1CN(C(=O)NCc2ccco2)C[C@H]1N(C)C | > 50.1 µM | > 50.1 µM |
| CSCCOC(=O)c1ccn(C(C)C)n1 | 248 µM | 241 µM |
| Cc1csc(CCN)n1 | > 501 µM | > 501 µM |
| CCCNC(=O)c1cc(C(C)C)nc(N2CCCC2)n1 | 41.7 µM | 11.5 µM |
| Cn1nnnc1SCCOc1cccc(F)c1 | 87.9 µM | 412 µM |
| CC1CCCN(C(=O)c2nnn(-c3ccc(C(F)(F)F)cc3)n2)C1 (stereo not given) | 43.9 µM | 18.3 µM |
| CCCNC(=O)c1ccc2snnc2c1 | 169 µM | 153 µM |
| O=C(CCN1CCCCC1)c1ccc2c(c1)OCO2 | > 501 µM | > 501 µM |
| CC1(c2ncc(CN3CCN(c4ncccn4)CC3)cn2)CCCCO1 (stereo not given) | > 50.1 µM | > 50.1 µM |
| O=c1[nH]cnc2cccc(O)c12 | > 501 µM | > 501 µM |
| CCc1ccccc1OC1CN(C(=O)c2ccsc2)C1 | > 50.1 µM | 8.19 µM |
| CC(C)Nc1nc(N2CCCC2)nc2c1CN(C(C)C)CC2 | 15.8 µM | 26.5 µM |
| O=C(Nc1nncs1)c1ccccn1 | 139 µM | 36.5 µM |
| COc1ccc(CN2CCCNCC2)cc1 | 163 µM | 258 µM |
| COc1ccc(C(=O)NC2=NCCS2)c(O)c1 | 185 µM | 456 µM |
| CCCS(=O)(=O)N(C)Cc1ccc(OCC)cn1 | 280 µM | 148 µM |
| COc1ccc(NC(=O)c2ccc(S(N)(=O)=O)o2)cc1 | > 501 µM | > 501 µM |
| CCCNC(=O)CSCc1nc(-c2ccccc2)no1 | 437 µM | 239 µM |

| Compound | IC50 [1] | IC50 [2] |
| --- | --- | --- |
| Cc1cc(=O)[nH]c(SC(C)C(=O)N2CCC(NS(C)(=O)=O)CC2)n1 (stereo not given) | > 50.1 µM | > 50.1 µM |
| Cc1nsc(C(=O)NCCc2cccs2)n1 | 32.7 µM | 13.5 µM |
| OCCOCCNCC(O)COCc1ccccc1Cl (stereo not given) | > 501 µM | > 501 µM |
| Cc1noc(COCC(=O)N2CCCCC2c2nccs2)n1 (stereo not given) | > 50.1 µM | > 50.1 µM |
| COc1ccc(CCN)c(OC)c1OC | 55.6 µM | 36.1 µM |
| CC(=O)N1CCC[C@H]1C(=O)NCCc1csc(C)n1 | > 501 µM | > 501 µM |
| CC(C)c1ccc2c(c1)C(N)C(=O)N2 (stereo not given) | > 501 µM | > 501 µM |
| CCc1ccc(CNc2ccc(CO)cn2)cc1 | 356 µM | 160 µM |
| COc1ccc(OCCSCC(=O)NCCC#N)cc1 | 288 µM | 195 µM |
| Cn1c(=O)c2c(nc(Cl)n2CCCC#N)n(C)c1=O | > 501 µM | > 501 µM |
| CCCc1nc(C)cc(N2CCC3(CCC(=O)N(CCO)C3)CC2)n1 | > 50.1 µM | > 50.1 µM |
| COc1ccccc1CC(=O)Nc1ncc(C(N)=O)s1 | > 501 µM | > 501 µM |
| COc1ncccc1C(=O)NCCc1cccs1 | 285 µM | 347 µM |
| CNC(=O)COc1cccc(OCC2CC2)c1 | 188 µM | > 501 µM |
| COCCN(Cc1ccoc1)S(=O)(=O)c1ccc(F)c(Cl)c1 | > 50.1 µM | > 50.1 µM |
| CCNC(=O)c1cc(N2CCCC(C)CC2)ccn1 (stereo not given) | 237 µM | 143 µM |
| NC1(c2nc(-c3ccccc3)c[nH]2)CCCC1 | 258 µM | 176 µM |
| CC(=O)c1cccc(COC(=O)c2cccnc2)c1 | 269 µM | 231 µM |
| Cc1nc(COc2ccc(C(=O)OCC#N)cc2)no1 | > 501 µM | > 501 µM |
| CN(Cc1cccc(C(N)=O)c1)C(=O)c1occc1Br | > 501 µM | > 501 µM |
| CC(C)c1ncc(C(=O)N2CCS(=O)(=O)CC2)cn1 | > 501 µM | > 501 µM |
| COc1ccc(-n2cc(CNC(=O)c3ccccn3)nn2)cc1 | > 50.1 µM | > 50.1 µM |
| COc1ncccc1CN(C)C(=O)c1ccccc1F | > 501 µM | > 501 µM |
| N#CC1(NC(=O)COc2cc(Cl)cc(Cl)c2)CCSC1 (stereo not given) | > 50.1 µM | > 50.1 µM |
| FC(F)COCCn1nnc(-c2ccsc2)n1 | 56.4 µM | 255 µM |
| O=C1C=CC(=O)N1Cc1ccc(Cl)cc1 | 174 µM | 129 µM |
| NC(=O)c1cc(S(=O)(=O)NCCc2ccccc2)cs1 | > 501 µM | 247 µM |

| Compound | IC50 [1] | IC50 [2] |
| --- | --- | --- |
| Nc1ccc(CNc2ccc(C(F)(F)F)nn2)cn1 | > 501 µM | > 501 µM |
| Cc1nonc1NC(=O)CCn1cc(Br)ccc1=O | > 50.1 µM | > 50.1 µM |
| c1cc(-c2ccn(CCN3CCCC3)n2)cc(-c2nccs2)c1 | 27.4 µM | 43.6 µM |
| CCN(Cc1ccc(Cl)c(Cl)c1)C(=O)CCS(C)(=O)=O | > 501 µM | 129 µM |
| NCC(O)c1ccc(Cl)c(F)c1 (stereo not given) | > 501 µM | 252 µM |
| OCCCN1CCCN(Cc2ccc(F)cc2)CC1 | > 501 µM | 186 µM |
| NS(=O)(=O)NCC1CCN(c2cccc(Br)c2)C1 (stereo not given) | 230 µM | 247 µM |
| NC(=O)c1ccsc1NC(=O)CCN1CCCCC1 | > 501 µM | 495 µM |
| NCc1cccc(C(=O)NCc2ccco2)c1 | > 501 µM | > 501 µM |
| O=C(CN1CCNCC1)c1ccco1 | 186 µM | 239 µM |
| CN(CCc1ccccn1)Cc1nccn1Cc1ccccc1 | > 50.1 µM | 43.5 µM |
| Cc1ccc2nc(C3CCCN3Cc3nnc(C)s3)[nH]c2c1 (stereo not given) | > 50.1 µM | > 50.1 µM |
| N[C@H]1CC[C@H](Oc2ncccc2Cl)CC1 | > 501 µM | 125 µM |
| CCCn1nnnc1NCc1ccsc1 | 132 µM | 171 µM |
| COCc1ccc(SCC(=O)N(C)C)cc1 | > 501 µM | > 501 µM |
| CCOc1ccc(CNC(=O)CCn2cccn2)cc1 | > 501 µM | 148 µM |
| Nc1ncnc2[nH]c(N3CCCCC3)nc12 | > 50.1 µM | > 50.1 µM |
| N#CC1(NC(=O)CCc2ccc(Cl)s2)CCOCC1 | > 501 µM | 236 µM |
| CCCc1ccc2oc(C(=O)N3CCN(CCOC)CC3)c(C)c2c1 | 4.11 µM | 4.94 µM |
| Cc1ccc(F)c(C(=O)N[C@@H]2CNC[C@H]2O)c1Cl | > 501 µM | > 501 µM |
| CC(N)CCc1ccc2c(c1)OCO2 (stereo not given) | 274 µM | 185 µM |
| COc1cccc(C(=O)Nc2ccnn2C(C)C)c1 | > 501 µM | 259 µM |
| CN(C1CCCCC1)S(=O)(=O)NC1CCCCNC1=O (stereo not given) | > 501 µM | > 501 µM |
| CCC(CO)NCc1ccc(-c2ccc(F)c(Cl)c2)o1 (stereo not given) | 13.2 µM | 35.4 µM |
| CSc1cccc(CN(C)C(=O)CNC2CC2)c1 | > 501 µM | 297 µM |
| O=C(CO)N1CCCC(CCc2ccccc2F)C1 (stereo not given) | 142 µM | 196 µM |
| COc1cccc(-c2ncc(CN)s2)c1 | 282 µM | 161 µM |

| Compound | IC50 [1] | IC50 [2] |
| --- | --- | --- |
| CCCOc1cc(CNC(=O)c2csnc2C)ccn1 | 215 µM | 350 µM |
| CCOc1cc(Cl)ccc1CN | 121 µM | 159 µM |
| OC(CN1CCOC2(CCCC2)C1)c1ccccc1 (stereo not given) | 172 µM | 379 µM |
| Cc1cc(C(=O)N(C)C[C@H](O)CO)cc(Cl)c1Br | 51.9 µM | 403 µM |
| O=C(c1cccnc1)N1CCC2(CC1)CNc1c(F)cccc12 | > 50.1 µM | > 50.1 µM |
| CCOc1ccc(OCc2nccc(-c3cc(C(=O)O)ccn3)n2)cc1 | > 50.1 µM | > 50.1 µM |
| Cc1cccc(NCCNC(=O)c2ccccc2)n1 | > 501 µM | > 501 µM |
| Fc1cccc(OC2CCN(CCn3cc4ccccc4n3)CC2)c1 | 26.1 µM | > 50.1 µM |
| NCCc1ccc(N2CCOCC2)c(F)c1 | 263 µM | 154 µM |
| NC(=O)c1cnc(NC2CCc3ccccc32)c(Cl)c1 (stereo not given) | 196 µM | 199 µM |
| CS(=O)(=O)CCC(=O)N1C[C@@H]2CC[C@H](C1)N(Cc1ccccc1)C2=O | > 50.1 µM | > 50.1 µM |
| NC1CCN(c2ncc(C(F)(F)F)cc2Cl)C1 (stereo not given) | 83.4 µM | 123 µM |
| CC(C)N1CC2(CCCN(Cc3noc(C4CCCC4)n3)C2)CCC1=O (stereo not given) | > 50.1 µM | > 50.1 µM |
| CN(C)c1ccc(C(=O)N2CCCC2c2ccc(Cl)cc2)nn1 (stereo not given) | > 50.1 µM | > 50.1 µM |
| O=C(NCCc1c[nH]c2ccccc12)C1(n2cnnn2)CCCCC1 | > 50.1 µM | 47.6 µM |
| CCn1nnnc1SCc1cc(C#N)ccc1F | 87.5 µM | 42.7 µM |
| CC(Nc1ccc(Br)cc1)c1nc(C2CC2)no1 (stereo not given) | 0.994 µM | 2.01 µM |
| CC1CCN(S(=O)(=O)NC(C)C(C)C)CC1 (stereo not given) | > 501 µM | 261 µM |
| CCN(Cc1cnn(C)c1)C[C@H]1CC[C@@H](Cc2cccc(CN)c2)O1 | > 50.1 µM | > 50.1 µM |
| CC(C)(C)OC(=O)c1ncccc1N | 265 µM | > 501 µM |
| COC(=O)COc1ccc(C(C)=O)cc1Cl | 354 µM | 264 µM |
| COc1ccccc1CNc1ccc(C#N)cn1 | 279 µM | 194 µM |
| CC(C)CC(NC(N)=O)C(=O)Nc1cc(F)cc(F)c1 (stereo not given) | > 501 µM | 239 µM |
| O=C(CN1CCNCC1)NCCSc1ccc(Cl)cc1 | 110 µM | 177 µM |
